Measurements from US6617126B1, “Method for improving the growth and colorimetric detection of bacteria, yeasts, fungi or cocci” (priority 1996, dated 2003).
Converted amounts (≈) assume the structure as drawn. Like-named read-outs stand apart in the source and are kept apart here.

Experiments:
[1] = tested on: Mycobacterium tuberculosis; test: microbe, parasite or virus in culture
[2] = tested on: Mycobacterium tuberculosis
[3] = H37RV, read-out: MIC (minimum inhibiting concentration), strain M.tb. H37 Rv
[4] = read-out: MIC (minimum inhibiting concentration), strain Clin. M.tb 1
[5] = read-out: MIC (minimum inhibiting concentration), strain Clin. M.tb 15

Compound	MIC [1, 3]	MIC [1, 4]	MIC [1, 5]	MIC (minimum inhibiting concentration) ([2]; strain Clin. M.tb 1)	MIC (minimum inhibiting concentration) ([2]; strain Clin. M.tb 15)	MIC (minimum inhibiting concentration) ([2]; strain M.tb. H37 Rv)
CO[C@H]1/C=C/O[C@@]2(C)Oc3c(C)c(O)c4c(O)c(c(/C=N/N5CCN(C)CC5)c(O)c4c3C2=O)NC(=O)/C(C)=C\C=C\[C@H](C)[C@H](O)[C@@H](C)[C@@H](O)[C@@H](C)[C@H](OC(C)=O)[C@@H]1C [Rifampicin (RMP), Rifampicin]	2 µg/mL (≈ 2.43 µM)	1 µg/mL (≈ 1.22 µM)	2 µg/mL (≈ 2.43 µM)	–	–	–
NNC(=O)c1ccncc1 [Isoniacid (INA), Isoniacid]	–	–	–	0.03 µg/mL (≈ 0.219 µM)	0.03 µg/mL (≈ 0.219 µM)	0.06 µg/mL (≈ 0.438 µM)
CC[C@@H](CO)NCCN[C@@H](CC)CO [Ethambutol (EMB), Ethambutol]	0.5 µg/mL (≈ 2.45 µM)	0.25 µg/mL (≈ 1.22 µM)	0.5 µg/mL (≈ 2.45 µM)	–	–	–
